Columns and labels:
Assay in all cases: area under growth-rate inhibition curve (AUC GRI) (dimensionless (GR-based AUC)); higher = less growth inhibition
Settings in all cases: exposure time: 72 h; concentrations: 0.1, 1, 10 uM
BT474-P = tested on: BT474-P
Outline: (§1)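 Six breast cancer cell line models (two triple-negative lines, plus parental and lapatinib + trastuzumab-resistant HER2+ lines) were plated at optimised log-phase densities and exposed to compound at 0.1, 1 or 10 µM for 72 h. Cells were fixed in 4% paraformaldehyde, and nuclei were stained with Hoechst 33342 or DAPI, imaged and counted. Area under the growth-rate inhibition curve came from 2 biological replicates, with growth corrected using Day 0 plates, untreated Day 3 plates and DMSO controls.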

MDA-MB-468 = tested on: MDA-MB-468
Outline: as §1

SKBR3-LTR = tested on: SKBR3-LTR
Outline: as §1

BT474-LTR = tested on: BT474-LTR
Outline: as §1

SKBR3-P = tested on: SKBR3-P
Outline: as §1

MDA-MB-231 = tested on: MDA-MB-231
Outline: as §1

| SMILES | area under growth-rate inhibition curve (BT474-P) | area under growth-rate inhibition curve (MDA-MB-468) | area under growth-rate inhibition curve (SKBR3-LTR) | area under growth-rate inhibition curve (BT474-LTR) | area under growth-rate inhibition curve (SKBR3-P) | area under growth-rate inhibition curve (MDA-MB-231) |
| --- | --- | --- | --- | --- | --- | --- |
| CC(=O)O[C@]1(C(C)=O)CC[C@H]2[C@@H]3C=C(C)C4=CC(=O)CC[C@]4(C)[C@H]3CC[C@@]21C [Megestrol Acetate] | 0.978 | 1.01 | 1.09 | 1.09 | 0.968 | 1 |
| CC12CC3CC(C)(C1)CC(N)(C3)C2.Cl [Memantine HCl] | 1 | 0.982 | 0.989 | 0.981 | 1.03 | 0.997 |
| COc1ccc(CN(CCN(C)C)c2ccccn2)cc1.O=C(O)/C=C\C(=O)O [Mepyramine maleate] | 1.03 | 1.05 | 1.05 | 1.06 | 1.05 | 1.05 |
| C[N+]1(C)C2CC(OC(=O)C(CO)c3ccccc3)CC1C1OC12.[Br-] (stereo unspecified) [Methscopolamine] | 1.05 | 1.04 | 1.04 | 1.1 | 1.02 | 1.03 |
| CC[C@@H](CO)NC(=O)[C@@H]1C=C2c3cccc4[nH]cc(c34)C[C@H]2N(C)C1.O=C(O)/C=C\C(=O)O [Methylergometrine maleate] | 1.01 | 1.06 | 1.05 | 1.05 | 1.04 | 1.03 |
| CCN(CC)CCNC(=O)c1cc(Cl)c(N)cc1OC.Cl [MetoclopraMide HCl] | 1.04 | 1.01 | 1.04 | 1.09 | 1.02 | 1.05 |
| COCCc1ccc(OCC(O)CNC(C)C)cc1.O=C(O)C(O)C(O)C(=O)O (stereo unspecified) [Metoprolol Tartrate] | 0.987 | 0.98 | 0.997 | 1.01 | 0.999 | 1.01 |
| CN1CCN2c3ccccc3Cc3ccccc3C2C1.[Cl-].[H+] (stereo unspecified) [Mianserin HCl] | 1.07 | 1.06 | 1.09 | 1.12 | 1.02 | 1.03 |
| CC#C[C@]1(O)CC[C@H]2[C@@H]3CCC4=CC(=O)CCC4=C3[C@@H](c3ccc(N(C)C)cc3)C[C@@]21C [Mifepristone] | 1 | 0.989 | 0.998 | 1.02 | 0.962 | 1.03 |
| Cc1[nH]c(=O)c(C#N)cc1-c1ccncc1 [Milrinone] | 1.03 | 1.03 | 1.07 | 1.05 | 1.02 | 1.04 |
| Nc1nc(CC(=O)Nc2ccc(CCNCC(O)c3ccccc3)cc2)cs1 (stereo unspecified) [Mirabegron] | 1.04 | 1.01 | 1.07 | 1.11 | 1.02 | 1.02 |
| CCOc1cc(N)c(Cl)cc1C(=O)NCC1CN(Cc2ccc(F)cc2)CCO1.O=C(O)CC(O)(CC(=O)O)C(=O)O (stereo unspecified) [Mosapride Citrate] | 1.04 | 1.02 | 1.02 | 1.09 | 1.01 | 1.03 |
| CN[C@H](CC(=O)O)C(=O)O [NMDA (N-Methyl-D-aspartic acid)] | 1.08 | 1.04 | 1.08 | 1.09 | 1.07 | 1.04 |
| CC(C)(Cc1ccc2ccccc2c1)NC[C@@H](O)COc1cccc(Cl)c1C#N [NPS-2143] | 0.808 | 0.817 | 0.794 | 0.815 | 0.833 | 0.874 |
| COc1ccccc1N1CCN(CC(O)COc2cccc3ccccc23)CC1.[Cl-].[Cl-].[H+].[H+] (stereo unspecified) [Naftopidil DiHCl] | 0.978 | 0.995 | 1.05 | 1.02 | 0.983 | 1.02 |
| COc1ccccc1N1CCN(CC(O)COc2cccc3ccccc23)CC1 (stereo unspecified) [Naftopidil] | 1.01 | 1.02 | 1.07 | 1.08 | 1 | 1.04 |
| C=CCN1CCC23c4c5ccc(O)c4OC2C(OCCOCCOCCOCCOCCOCCOCCOC)CCC3(O)C1C5 (stereo unspecified) [Naloxegol] | 1 | 1.02 | 1.01 | 0.997 | 1.01 | 0.991 |
| C=CCN1CC[C@]23c4c5ccc(O)c4O[C@H]2C(=O)CC[C@@]3(O)[C@H]1C5.[Cl-].[H+] [Naloxone HCl] | 1.05 | 1.02 | 1.05 | 1.08 | 1.03 | 1.04 |
| Cl.O=C1CC[C@@]2(O)[C@H]3Cc4ccc(O)c5c4[C@@]2(CCN3CC2CC2)[C@H]1O5 [Naltrexone HCl] | 1.05 | 1.04 | 1.06 | 1.09 | 1.05 | 1.03 |
| Cl.c1ccc2c(CC3=NCCN3)cccc2c1 [Naphazoline HCl] | 1.04 | 1.03 | 1.07 | 1.11 | 1.02 | 1.05 |
| CNS(=O)(=O)CCc1ccc2[nH]cc(C3CCN(C)CC3)c2c1.[Cl-].[H+] [Naratriptan] | 1.04 | 1.04 | 1.06 | 1.04 | 0.994 | 1.02 |
| OC(CNCC(O)C1CCc2cc(F)ccc2O1)C1CCc2cc(F)ccc2O1.[Cl-].[H+] (stereo unspecified) [Nebivolol] | 0.882 | 0.805 | 0.853 | 0.88 | 0.938 | 0.874 |
| CCCc1c2oc(C(=O)O)cc(=O)c2cc2c(=O)cc(C(=O)O)n(CC)c12 [Nedocromil] | 1.02 | 1.05 | 1.05 | 1.04 | 1.02 | 1.03 |
| Cc1cccc(C)c1NC(=O)CN1CCCC1=O [Nefiracetam] | 1.05 | 1.03 | 1.03 | 1.06 | 1 | 1.02 |
| Cl.NCc1cnc(S)n1C1CCc2c(F)cc(F)cc2C1 (stereo not drawn) [Nepicastat (SYN-117) HCl] | 1.03 | 1 | 1.07 | 1.08 | 1.02 | 1.01 |
| O=C(O)c1cccnc1Nc1cccc(C(F)(F)F)c1 [Niflumic acid] | 1.01 | 1.03 | 1.04 | 1.07 | 1.01 | 1.03 |

| SMILES | area under growth-rate inhibition curve (BT474-P) | area under growth-rate inhibition curve (MDA-MB-468) | area under growth-rate inhibition curve (SKBR3-LTR) | area under growth-rate inhibition curve (BT474-LTR) | area under growth-rate inhibition curve (SKBR3-P) | area under growth-rate inhibition curve (MDA-MB-231) |
| --- | --- | --- | --- | --- | --- | --- |
| CN/C(=C\[N+](=O)[O-])NCCSCc1csc(CN(C)C)n1 [Nizatidine] | 1.05 | 1.04 | 1.05 | 1.07 | 1 | 1.02 |
| Cc1cc2c(s1)Nc1ccccc1N=C2N1CCN(C)CC1 [Olanzapine] | 1.02 | 1.03 | 1.06 | 1.08 | 0.97 | 1.01 |
| CN(C)CC/C=C1\c2ccccc2COc2ccc(CC(=O)O)cc21.Cl [Olopatadine HCl] | 1.04 | 0.999 | 1.02 | 1.1 | 1.02 | 1.04 |
| Cc1nccn1CC1CCc2c(c3ccccc3n2C)C1=O.[Cl-].[H+] (stereo unspecified) [Ondansetron HCl] | 1.05 | 1.02 | 1.02 | 1.08 | 1.03 | 1.03 |
| Cc1ccccc1C(OCCN(C)C)c1ccccc1.O=C(O)CC(O)(CC(=O)O)C(=O)O (stereo unspecified) [Orphenadrine Citrate] | 1.03 | 1.04 | 1.07 | 1.06 | 0.995 | 1.02 |
| CCCCCCCCOc1ccccc1C(=O)Nc1ccc(C(=O)OCC[N+](C)(CC)CC)cc1.[Br-] [Otilonium Bromide] | 0.939 | 0.947 | 1.01 | 1.07 | 1 | 1.04 |
| CCN(CC)CC#CCOC(=O)C(O)(c1ccccc1)C1CCCCC1.[Cl-].[H+] (stereo unspecified) [Oxybutynin chloride] | 1.02 | 0.992 | 1.04 | 1.1 | 0.999 | 1.04 |
| Cc1cc(C(C)(C)C)c(O)c(C)c1CC1=NCCN1.[Cl-].[H+] [Oxymetazoline hydrochloride] | 1.05 | 1.04 | 1.06 | 1.09 | 1.02 | 1.01 |
| CC(C)Oc1ccc(-c2nc(-c3cccc4c3CC[C@@H]4NCCO)no2)cc1C#N [Ozanimod (RPC1063)] | 0.933 | 0.927 | 0.976 | 1 | 0.984 | 0.889 |
| Cc1cc(CS(=O)(=O)c2ccccc2)cc(OCc2ccc(CN3CCC[C@@H]3CO)cc2)c1 [PF-543] | 0.97 | 0.99 | 1.07 | 1.01 | 1.03 | 1.01 |
| Cc1nc2n(c(=O)c1CCN1CCC(c3noc4cc(F)ccc34)CC1)CCCC2O (stereo unspecified) [Paliperidone] | 0.98 | 1.05 | 1.06 | 1.02 | 1.02 | 1.05 |
| CC(=O)OC1CC2CCC3C(CCC4(C)C3CC([N+]3(C)CCCCC3)C4OC(C)=O)C2(C)CC1[N+]1(C)CCCCC1.[Br-].[Br-] (stereo unspecified) [Pancuronium dibromide] | 1.01 | 1.01 | 0.978 | 1.06 | 0.989 | 1 |
| Fc1ccc([C@@H]2CCNC[C@H]2COc2ccc3c(c2)OCO3)cc1.[Cl-].[H+] [Paroxetine HCl] | 0.931 | 0.912 | 0.927 | 0.927 | 0.955 | 0.965 |
| NCCCCC1NC(=O)C(Cc2c[nH]c3ccccc23)NC(=O)C(c2ccccc2)NC(=O)C2CC(OC(=O)NCCN)CN2C(=O)C(Cc2ccccc2)NC(=O)C(Cc2ccc(OCc3ccccc3)cc2)NC1=O (stereo unspecified) [Pasireotide] | 1.02 | 1.03 | 1.05 | 1.04 | 1.03 | 1.03 |
| Cc1cccn2c(=O)c(-c3nnn[n-]3)cnc12.[K+] [Pemirolast Potassium] | 1.04 | 1.04 | 1.05 | 1.05 | 1.03 | 1.05 |
| CC(=O)CCCCn1c(=O)c2c(ncn2C)n(C)c1=O [Pentoxifylline] | 1 | 1.04 | 1.05 | 1.03 | 1.02 | 1.04 |
| N#Cc1ccccc1-c1cc(-c2ccccn2)cn(-c2ccccc2)c1=O [Perampanel] | 1.01 | 1.02 | 1.05 | 1.05 | 1.03 | 1.03 |
| CCCN1C[C@H](CSC)C[C@@H]2c3cccc4[nH]cc(c34)C[C@H]21.CS(=O)(=O)O [Pergolide mesylate] | 1.02 | 1.02 | 1.02 | 1.06 | 0.978 | 1.02 |
| OCCN1CCN(CCCN2c3ccccc3Sc3ccc(Cl)cc32)CC1 [Perphenazine] | 0.983 | 1.03 | 1.04 | 1.03 | 1.01 | 1.04 |
| CC(COc1ccccc1)N(CCCl)Cc1ccccc1.[Cl-].[H+] (stereo unspecified) [Phenoxybenzamine HCl] | 0.997 | 1 | 1.01 | 0.978 | 1.01 | 0.984 |
| CS(=O)(=O)O.Cc1ccc(N(CC2=NCCN2)c2cccc(O)c2)cc1 [Phentolamine Mesylate] | 0.997 | 0.964 | 1.04 | 1.05 | 0.983 | 1.01 |
| CNC[C@H](O)c1cccc(O)c1.Cl [Phenylephrine HCl] | 1.01 | 1.03 | 1.02 | 1.09 | 0.985 | 0.996 |
| CC(C)COc1ccc(CNC(=O)N(Cc2ccc(F)cc2)C2CCN(C)CC2)cc1 [Pimavanserin] | 0.873 | 0.887 | 0.876 | 0.936 | 0.856 | 0.867 |
| O=c1[nH]c2ccccc2n1C1CCN(CCCC(c2ccc(F)cc2)c2ccc(F)cc2)CC1 [Pimozide] | 0.974 | 0.959 | 1.01 | 0.991 | 0.972 | 0.991 |
| CCC/N=C1\S/C(=C\c2ccc(OC[C@H](O)CO)c(Cl)c2)C(=O)N1c1ccccc1C [Ponesimod] | 0.996 | 1.04 | 1.02 | 1.04 | 0.989 | 1.01 |
